Earlier results as cited in patent US20160120180A1, “COMPOSITIONS AND METHODS FOR CONTROLLING REPLANT DISEASES OF PERENNIAL CROPS” (Adjuvants Unlimited LLC, priority 2014, published 2016).

Experiments:
[1] = system: test plants; conditions: emulsion applied to soil at 2 and 4 grams of fatty acid per square foot
[2] = system: nematodes; conditions: soil-applied treatment on bermudagrass
[3] = system: Meloidogyne incognita; conditions: sprayed on plant foliage as a dilute emulsion
[4] = system: Meloidogyne incognita; conditions: in vitro

C=CCCCCCCCCC(=O)O [undecylenic acid]
Effect on test plants (phytotoxicity) [1]: the test plants died | Nematode number [2]: reduction in nematode number | Systemic effects on nematodes [3]: no systemic effects | Effect on isolated egg masses [4]: destroyed isolated egg masses
